{"source": "PubChem BioAssay AID1963841", "about": "(Molecular Pharmacology Branch, DTP, NCI, 2024)", "tested_on": "439559-082-T-J2-PDC spheroid viability", "assay": "Anticancer human tumor 439559-082-T-J2-PDC patient-derived colon adenocarcinoma cell line growth inhibition [POLQ]", "conditions": "spheroids with HUVEC and MSC; for viability, T/C: stronger effect = lower value", "description": "Multicellular complex tumor spheroid response to Polymerase (POL) inhibitors (novobiocin, ART-558, RP6685) in combination with a variety of drugs and investigational agents in selected tumor cell lines\nThe POL inhibitors (novobiocin, ART-558, and RP6685) were evaluated both individually and in combination with standard of care and investigational anticancer small molecules within a complex spheroid model of solid tumors. . Complex spheroids include a stromal component modeled by human endothelial cells (HUVEC) and fibroblasts modeled by human mesenchymal stem cells (MSCs). The concentration ranges selected for each drug and investigational agent were based upon clinically achievable concentrations if the clinical Cmax of the agent was known.\nCompounds. The drugs and investigational agents: novobiocin (NSC847541), ART-558 (NSC835418), RP-6685 (NSC848927), peposertib (NSC802822), ceralasertib (NSC780249), elimusertib (NSC800525), camonsertib (NSC841442), AZD-1390 (NSC803789), olaparib (NSC753686), talazoparib (NSC767125), rucaparib (NSC756644), sotorasib (NSC818433), MRTX-1133 (NSC836407), SN-38 (NSC673596), topotecan (NSC609699), epotoside (NSC141540), doxorubicin (NSC123127), gemcitabine (NSC613327), 5-fluorouracil (NSC19893), paclitaxel (NSC125973), vemurafenib (NSC761431), MSA-2 (NSC828583), SN-011 (NSC837082), adavosertib (NSC754352), prexasertib (NSC758257), carboplatin (NSC241240) and oxaliplatin (NSC266046), were obtained from the National Cancer Institute (NCI) Developmental Therapeutics Program Chemical Repository (21). The FDA-approved anticancer drug set is available from the Developmental Therapeutics Program at https://dtp.cancer.gov/organization/dscb/obtaining/. […] The stock solutions were prepared in dimethyl sulfoxide (DMSO, Sigma-Aldrich, St. Louis, MO, cat. D2650), except for the platinum compounds which were prepared in saline (Quality Biological, Gaithersburg, MD, cat. 114-055-101), at 800-fold the tested concentration and stored at -70 degrees C prior to their use. All drugs and investigational agents were tested over a range starting from a high concentration at or near the clinical Cmax and decreasing in half-log increments. If the clinical Cmax for an agent had not been determined, the highest concentration tested was 10 microM, except for SN-38, which was tested at a high concentration of 1 microM.\nCell Culture. All cells were maintained in an incubator at 37 degrees C and 5% CO2 with 95% humidity. The PDC lines were cultured according to standard operating procedures established by the NCI PDMR (https://pdmr.cancer.gov). Table 3 of the manuscript, lists the cell lines along with the number of the three cell types plated to form the mct-spheroids and media for tumor cell growth. After thawing, all PDC lines, except 997537-175-T-J1-PDC and 415267-285-R-J2-PDC, were cultured in Matrigel-coated flasks prepared with a working solution of 1X Ham's F-12 nutrient mix, without supplementation (Thermo Fisher Scientific, cat. 11765054), 100 U/mL penicillin-streptomycin (Thermo Fisher Scientific, cat. 15140122), and 2.5% Matrigel (Corning Inc., Corning, NY, cat. 354248) for the first three passages. The two PDC lines 997537-175-T-J1-PDC and 415267-285-R-J2-PDC were cultured on uncoated flasks. The 857933-349-R-J2-PDC line was cultured in 6C/Colon 1B media containing advanced DMEM/F-12 (Thermo Fisher Scientific, cat. 12634028), 10 mM HEPES (Thermo Fisher Scientific, cat. 15630080), 1X GlutaMAX supplement (Thermo Fisher Scientific, cat. 35050061), 0.1 mg/mL primocin (InvivoGen, San Diego, CA, cat. ant-pm-2), 10% defined fetal bovine serum, heat inactivated (HyClone Laboratories Inc., Logan, UT, cat. SH30070.03HI), 50% L-WRN conditioned media (ATCC, cat. CRL-3276), 1.25 mM N-Acetyl-L-cysteine (Sigma-Aldrich, cat. A9165), 10 mM nicotinamide (Sigma-Aldrich, cat. N0636), 1X B-27 supplement (Thermo Fisher Scientific, cat. 17504044), 1X N-2 supplement (Thermo Fisher Scientific, cat. […]", "note": "Several values for one entry are separate records, joined by “and”; a condition that tells them apart may be missing. Equal values may be shown once.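 Note: spheroids exposed to compounds for seven days before readout.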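 Throughout, for viability, T/C: 100% = DMSO vehicle control viability.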", "data": [{"smiles": "Cn1ncnc1[C@H]1c2n[nH]c(=O)c3cc(F)cc(c23)N[C@@H]1c1ccc(F)cc1", "values": [{"measurement": "viability, T/C", "setting": "compound 0.000316 µM", "value": "101% and 102% and 94.5%"}, {"measurement": "viability, T/C", "setting": "compound 0.001 µM", "value": "100% (2×) and 86.2%"}, {"measurement": "viability, T/C", "setting": "compound 0.00316 µM", "value": "94.4% and 97.9% and 97.8%"}, {"measurement": "viability, T/C", "setting": "compound 0.01 µM", "value": "96.7% and 93.2% and 100%"}, {"measurement": "viability, T/C", "setting": "compound 0.0316 µM", "value": "97.2% and 98.5% and 107%"}, {"measurement": "viability, T/C", "setting": "compound 0.1 µM", "value": "97.3% and 95.7% and 88.3%"}, {"measurement": "IC50", "setting": "curve of compound", "value": "> 0.1", "unit": "µM"}]}, {"smiles": "C=CC(=O)N1CCN(c2nc(=O)n(-c3c(C)ccnc3C(C)C)c3nc(-c4c(O)cccc4F)c(F)cc23)C(C)C1", "note": "(centres undefined) + Nc1ccc(C#CCN(C(=O)Cc2ncc(C(F)(F)F)cc2C(F)(F)F)c2ccc(F)cc2)nn1", "values": [{"measurement": "IC50", "setting": "curve of first compound, second compound 0.0316 µM", "value": "> 10", "unit": "µM"}, {"measurement": "IC50", "setting": "curve of first compound, second compound 0.1 µM", "value": "> 10", "unit": "µM"}, {"measurement": "IC50", "setting": "curve of first compound, second compound 0.316 µM", "value": "> 10", "unit": "µM"}, {"measurement": "IC50", "setting": "curve of first compound, second compound 1 µM", "value": "> 10", "unit": "µM"}, {"measurement": "IC50", "setting": "curve of first compound, second compound 3.16 µM", "value": "> 10", "unit": "µM"}, {"measurement": "IC50", "setting": "curve of first compound, second compound 10 µM", "value": "> 10", "unit": "µM"}, {"measurement": "viability, T/C", "setting": "second compound 0.0316 µM, first compound 0.0316 µM", "value": 105, "unit": "%"}, {"measurement": "viability, T/C", "setting": "second compound 0.0316 µM, first compound 0.1 µM", "value": 100, "unit": "%"}, {"measurement": "viability, T/C", "setting": "second compound 0.0316 µM, first compound 0.316 µM", "value": 91.2, "unit": "%"}, {"measurement": "viability, T/C", "setting": "second compound 0.0316 µM, first compound 1 µM", "value": 94.5, "unit": "%"}, {"measurement": "viability, T/C", "setting": "second compound 0.0316 µM, first compound 3.16 µM", "value": 123, "unit": "%"}, {"measurement": "viability, T/C", "setting": "second compound 0.0316 µM, first compound 10 µM", "value": 104, "unit": "%"}, {"measurement": "viability, T/C", "setting": "second compound 0.1 µM, first compound 0.0316 µM", "value": 109, "unit": "%"}, {"measurement": "viability, T/C", "setting": "second compound 0.1 µM, first compound 0.1 µM", "value": 88.9, "unit": "%"}, {"measurement": "viability, T/C", "setting": "second compound 0.1 µM, first compound 0.316 µM", "value": 83.6, "unit": "%"}, {"measurement": "viability, T/C", "setting": "second compound 0.1 µM, first compound 1 µM", "value": 98.1, "unit": "%"}, {"measurement": "viability, T/C", "setting": "second compound 0.1 µM, first compound 3.16 µM", "value": 115, "unit": "%"}, {"measurement": "viability, T/C", "setting": "second compound 0.1 µM, first compound 10 µM", "value": 99.2, "unit": "%"}, {"measurement": "viability, T/C", "setting": "second compound 0.316 µM, first compound 0.0316 µM", "value": 97.4, "unit": "%"}, {"measurement": "viability, T/C", "setting": "second compound 0.316 µM, first compound 0.1 µM", "value": 95.7, "unit": "%"}, {"measurement": "viability, T/C", "setting": "second compound 0.316 µM, first compound 0.316 µM", "value": 99.1, "unit": "%"}, {"measurement": "viability, T/C", "setting": "second compound 0.316 µM, first compound 1 µM", "value": 99.1, "unit": "%"}, {"measurement": "viability, T/C", "setting": "second compound 0.316 µM, first compound 3.16 µM", "value": 131, "unit": "%"}, {"measurement": "viability, T/C", "setting": "second compound 0.316 µM, first compound 10 µM", "value": 100, "unit": "%"}, {"measurement": "viability, T/C", "setting": "second compound 1 µM, first compound 0.0316 µM", "value": 91.6, "unit": "%"}, {"measurement": "viability, T/C", "setting": "second compound 1 µM, first compound 0.1 µM", "value": 97.1, "unit": "%"}, {"measurement": "viability, T/C", "setting": "second compound 1 µM, first compound 0.316 µM", "value": 86.3, "unit": "%"}, {"measurement": "viability, T/C", "setting": "second compound 1 µM, first compound 1 µM", "value": 100, "unit": "%"}, {"measurement": "viability, T/C", "setting": "second compound 1 µM, first compound 3.16 µM", "value": 123, "unit": "%"}, {"measurement": "viability, T/C", "setting": "second compound 1 µM, first compound 10 µM", "value": 99.1, "unit": "%"}, {"measurement": "viability, T/C", "setting": "second compound 3.16 µM, first compound 0.0316 µM", "value": 100, "unit": "%"}, {"measurement": "viability, T/C", "setting": "second compound 3.16 µM, first compound 0.1 µM", "value": 90.3, "unit": "%"}, {"measurement": "viability, T/C", "setting": "second compound 3.16 µM, first compound 0.316 µM", "value": 99.5, "unit": "%"}, {"measurement": "viability, T/C", "setting": "second compound 3.16 µM, first compound 1 µM", "value": 98.7, "unit": "%"}, {"measurement": "viability, T/C", "setting": "second compound 3.16 µM, first compound 3.16 µM", "value": 101, "unit": "%"}, {"measurement": "viability, T/C", "setting": "second compound 3.16 µM, first compound 10 µM", "value": 89.5, "unit": "%"}, {"measurement": "viability, T/C", "setting": "second compound 10 µM, first compound 0.0316 µM", "value": 99.1, "unit": "%"}, {"measurement": "viability, T/C", "setting": "second compound 10 µM, first compound 0.1 µM", "value": 96.1, "unit": "%"}, {"measurement": "viability, T/C", "setting": "second compound 10 µM, first compound 0.316 µM", "value": 87.2, "unit": "%"}, {"measurement": "viability, T/C", "setting": "second compound 10 µM, first compound 1 µM", "value": 94.7, "unit": "%"}, {"measurement": "viability, T/C", "setting": "second compound 10 µM, first compound 3.16 µM", "value": 116, "unit": "%"}, {"measurement": "viability, T/C", "setting": "second compound 10 µM, first compound 10 µM", "value": 95.3, "unit": "%"}]}]}
